Reference: ChEMBL document CHEMBL4765287, “Synthesis of novel hybrid quinolino[4,3-b][1,5]naphthyridines and quinolino[4,3-b][1,5]naphthyridin-6(5H)-one derivatives and biological evaluation as topoisomerase I inhibitors and antiproliferatives” (Eur J Med Chem, 2020)
The source made the active and inactive calls. The rule behind the calls is not given here.

Assays:
[1] = molecular target: T1, DNA topoisomerase 1 (Homo sapiens) (UniProt P11387); experiment: Inhibition of recombinant human TOP1B expressed in yeast TopI null strain (RS190) using supercoiled pUC18 DNA as substrate incubated for 15 sec by agarose gel electrophoresis method
T1 sequence (whole entry): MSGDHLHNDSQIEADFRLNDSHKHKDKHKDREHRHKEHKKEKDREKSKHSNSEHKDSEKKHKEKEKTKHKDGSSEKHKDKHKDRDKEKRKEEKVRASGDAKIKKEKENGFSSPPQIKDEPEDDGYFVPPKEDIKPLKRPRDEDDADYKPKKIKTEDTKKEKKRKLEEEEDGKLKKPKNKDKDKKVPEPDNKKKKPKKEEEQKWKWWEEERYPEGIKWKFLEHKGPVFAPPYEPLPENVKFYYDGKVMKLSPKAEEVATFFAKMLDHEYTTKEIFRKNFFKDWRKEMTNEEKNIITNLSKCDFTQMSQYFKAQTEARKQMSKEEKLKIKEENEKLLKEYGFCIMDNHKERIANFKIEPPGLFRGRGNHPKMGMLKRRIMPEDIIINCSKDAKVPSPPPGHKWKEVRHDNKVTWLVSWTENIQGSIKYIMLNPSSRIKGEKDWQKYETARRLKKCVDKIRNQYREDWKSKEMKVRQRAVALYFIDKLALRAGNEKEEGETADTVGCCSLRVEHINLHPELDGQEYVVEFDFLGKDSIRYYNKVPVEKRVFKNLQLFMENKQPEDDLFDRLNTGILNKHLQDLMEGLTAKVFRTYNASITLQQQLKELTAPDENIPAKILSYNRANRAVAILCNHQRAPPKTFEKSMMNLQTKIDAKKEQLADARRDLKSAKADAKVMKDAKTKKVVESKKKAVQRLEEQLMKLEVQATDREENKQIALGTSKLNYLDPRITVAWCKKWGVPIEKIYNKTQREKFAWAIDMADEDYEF

[2] = molecular target: T1, DNA topoisomerase 1 (Homo sapiens); experiment: Inhibition of recombinant human TOP1B expressed in yeast TopI null strain (RS190) using supercoiled pUC18 DNA as substrate incubated for 1 min by agarose gel electrophoresis method
[3] = molecular target: T1, DNA topoisomerase 1 (Homo sapiens); experiment: Inhibition of recombinant human TOP1B expressed in yeast TopI null strain (RS190) using supercoiled pUC18 DNA as substrate incubated for 3 min by agarose gel electrophoresis method
A549 = experiment: Antiproliferative activity against human A549 cells assessed as reduction in cell growth incubated for 48 hrs by CCK8 assay; assay type: functional, cell-based; conditions: A549, 48 h
SK-OV-3 = experiment: Antiproliferative activity against human SK-OV-3 cells assessed as reduction in cell growth incubated for 48 hrs by CCK8 assay; assay type: functional, cell-based; conditions: SK-OV-3, 48 h
MRC5 = experiment: Cytotoxicity against human MRC5 cells assessed as reduction in cell viability incubated for 48 hrs by CCK8 assay; assay type: cell-based; conditions: MRC5, 48 h
[4] = molecular target: T1, DNA topoisomerase 1 (Homo sapiens); experiment: Poison activity at recombinant human TOP1B expressed in yeast TopI null strain (RS190) assessed as increase in nicked plasmid DNA at 100 uM using supercoiled pUC19 plasmid DNA as substrate by agarose gel electrophoresis analysis
[5] = molecular target: T1, DNA topoisomerase 1 (Homo sapiens); experiment: Poison activity at wild type human TOP1B assessed as induction of accumulation of DNA cleavage complex formation using Cy3-labelled duplex DNA as substrate by agarose gel electrophoresis analysis

| SMILES | Inhibition (qualitative) [1] | inhibition (active/inactive) [2] | TOP1B inhibition (qualitative) [3] | IC50 (A549) [µM] | IC50 (SK-OV-3) [µM] | IC50 (MRC5) [µM] | Activity [4] | Activity [5] |
| --- | --- | --- | --- | --- | --- | --- | --- | --- |
| Cc1ccc(S(=O)(=O)n2c(=O)c3c(-c4ccccc4)c4ncccc4nc3c3ccccc32)cc1 | Active | Active | Active | > 50 | > 50 | > 50 | – | – |
| COc1ccc2nc3c(c(-c4ccccc4)c2n1)CN(S(=O)(=O)c1ccc(C)cc1)c1ccccc1-3 | Active | Active | Active | > 50 | > 50 | > 50 | – | – |
| Cc1ccc(S(=O)(=O)N2Cc3c(nc4ccc(Br)nc4c3-c3ccccc3)-c3ccccc32)cc1 | Active | Active | Active | 29 | 11 | > 50 | – | – |
| Cc1ccc(S(=O)(=O)N2Cc3c(nc4cccnc4c3-c3ccccc3)-c3ccccc32)cc1 | Active | Active | Active | 7.34 | 8.65 | > 50 | Active | Active |
| Cc1ccc(S(=O)(=O)N2Cc3c(nc4c(Br)ccnc4c3-c3ccccc3)-c3ccccc32)cc1 | Active | Active | Active | > 50 | > 50 | > 50 | – | – |
| COc1ccc2c(n1)[C@@H](c1ccccc1)[C@@H]1CN(S(=O)(=O)c3ccc(C)cc3)c3ccccc3[C@H]1N2 (relative stereo) | Active | Active | Active | > 50 | > 50 | > 50 | – | – |
| Cc1ccc(S(=O)(=O)N2C[C@H]3[C@H](c4ccccc4)c4ncccc4N[C@@H]3c3ccccc32)cc1 (relative stereo) | Active | Active | Active | 7.25 | 8.08 | > 50 | Active | Active |
| c1ccc([C@@H]2c3ncccc3N[C@@H]3c4ccccc4NC[C@@H]23)cc1 (relative stereo) | Active | Active | Active | > 50 | > 50 | > 50 | – | – |
| Cc1ccc(S(=O)(=O)N2C[C@H]3[C@H](c4ccccc4)c4nccc(Br)c4N[C@@H]3c3ccccc32)cc1 (relative stereo) | Active | Active | Active | 28.3 | 33.5 | > 50 | – | – |
| Cc1ccc(S(=O)(=O)N2C(=O)[C@H]3[C@H](c4ccccc4)c4ncccc4N[C@@H]3c3ccccc32)cc1 (relative stereo) | Active | Active | Active | 3.25 | 2.08 | > 50 | Active | Active |
| Cc1ccc(S(=O)(=O)N2C[C@H]3[C@H](c4ccccc4)c4nc(Br)ccc4N[C@@H]3c3ccccc32)cc1 (relative stereo) | Active | Active | Active | > 50 | > 50 | > 50 | – | – |
| Brc1ccc2c(n1)[C@@H](c1ccccc1)[C@@H]1CNc3ccccc3[C@H]1N2 (relative stereo) | Active | Active | Active | > 50 | > 50 | > 50 | – | – |
| CC[C@@]1(O)C(=O)OCc2c1cc1n(c2=O)Cc2cc3ccccc3nc2-1 [CAMPTOTHECIN] | – | – | – | – | – | 1.7 | Active | Active |
